We go through 1 compound from patent publication US12329851B2 (MedinCell S.A., priority 2021, dated 2025).

This data set in a line: Population pharmacokinetics (PopPK) modeling. Also on record: species or system human. The settings on record: after sc Risperidone formulation.

Text: The general procedures that were followed for PopPK model development are outlined below: • 1. Exploratory data analysis • 2. Base structural model development • 3. Evaluation of covariate effects • 4. Model refinement • 5. Model evaluation
This was a one compartment model, with a first order and transit compartment absorption routes and a first-order elimination.
Predicted risperidone concentration from the parent model was used as input into the metabolite central compartment.
Finally, model estimated parent and metabolite levels were used to calculate TAM exposure, which was used for PK evaluation and simulations as well as for exposure-response evaluation of safety and efficacy.

Turning to `Cc1nc2n(c(=O)c1CCN1CCC(c3noc4cc(F)ccc34)CC1)CCCC2O` (stereo not shown) [9-OH-risperidone, 9-hydroxy-risperidone], the “final PopPK model estimate for clearance (CL)” value is reported as 5.78 L/h.
